Test results reported in article PMC12396409, “Screening and hit evaluation of a microbial metabolite library against the pathogenic Plasmodium falciparum and Toxoplasma gondii parasites” (International Journal for Parasitology: Drugs and Drug …, 2025).
Where two headings read alike, the source gives them in different places.

Tests used:
[1] = tested on: P. falciparum 3D7 parasites; experiment: P. falciparum growth inhibition assay, 1-cycle (72 h treatment), SYBR DNA staining (library screen at 2 μg/mL and dose-response); type: cell-based, Plasmodium falciparum; settings: for activity at 2 µg/mL: Plasmodium falciparum
[2] = tested on: P. falciparum 3D7 parasites; experiment: P. falciparum growth inhibition assay, 2-cycle (120 h treatment), delayed-death screen and dose-response; type: cell-based, Plasmodium falciparum; settings: for activity at 2 µg/mL: Plasmodium falciparum
[3] = tested on: T. gondii RH strain (RH-Tub-eYFP) tachyzoites; experiment: microbe, parasite or virus in culture; type: cell-based, Toxoplasma gondii; settings: 72 h, 72 h; for percent parasite growth at 2 µg/mL: Toxoplasma gondii
[4] = T. gondii, screen at 2 μg/mL, replicate 1, read-out: Tg_72h_%Growth_Rep1
[5] = T. gondii, screen at 2 μg/mL, replicate 2, read-out: Tg_72h_%Growth_Rep2
[6] = P. falciparum, 72 h, parasite screen 2 μg/mL, % growth, replicate 1
[7] = P. falciparum, 72 h, parasite screen 2 μg/mL, % growth, replicate 2
[8] = P. falciparum, 120 h, parasite screen 2 μg/mL, % growth, replicate 1
[9] = P. falciparum, 120 h, parasite screen 2 μg/mL, % growth, replicate 2
[10] = T. gondii, parasite screen 2 μg/mL, % growth, replicate 1
[11] = T. gondii, parasite screen 2 μg/mL, % growth, replicate 2
[12] = 3D7, P. falciparum, 72 h, screen at 2 μg/mL, replicate 1, read-out: Pf_72h_%Growth_Rep1
[13] = 3D7, P. falciparum, 72 h, screen at 2 μg/mL, replicate 2, read-out: Pf_72h_%Growth_Rep2
[14] = 3D7, P. falciparum, 120 h, screen at 2 μg/mL, replicate 1, read-out: Pf_120h_%Growth_Rep1
[15] = 3D7, P. falciparum, 120 h, screen at 2 μg/mL, replicate 2, read-out: Pf_120h_%Growth_Rep2

CN(C)[C@@H]1C(O)=C(C(N)=O)C(=O)[C@@]2(O)C(O)=C3C(=O)c4c(O)ccc(Cl)c4[C@@](C)(O)[C@H]3C[C@@H]12 [Chlortetracycline]
activity at 2 µg/mL ([1]; 3D7, 72 h, P. falciparum, 72 h, screen at 2 μg/mL, replicate 1, read-out: Pf_72h_%Growth_Rep1): 97.7% | activity at 2 µg/mL ([1]; 3D7, 72 h, P. falciparum, 72 h, screen at 2 μg/mL, replicate 2, read-out: Pf_72h_%Growth_Rep2): 90.6% | activity at 2 µg/mL ([2]; 3D7, 120 h, P. falciparum, 120 h, screen at 2 μg/mL, replicate 1, read-out: Pf_120h_%Growth_Rep1): 149% | activity at 2 µg/mL ([2]; 3D7, 120 h, P. falciparum, 120 h, screen at 2 μg/mL, replicate 2, read-out: Pf_120h_%Growth_Rep2): 97.7% | percent parasite growth at 2 µg/mL [3, 4]: 102% | percent parasite growth at 2 µg/mL [3, 5]: 83.5%

Cc1cc(O)c(C)c(O)c1C(=O)Oc1c(C)c(C)c(C(=O)Oc2c(C)c(C)c(C(=O)O)c(O)c2C)c(O)c1C [Thielavin A]
IC50 ([1]; 3D7, 72 h treatment, mean ± S.D., n ≥ 3, read-out: IC50 (μM), P. falciparum): > 1 µM | Pf_72h_%Growth_Rep1 ([1]; P. falciparum, 72 h, screen at 2 μg/mL, replicate 1): 46.40% | Pf_72h_%Growth_Rep2 ([1]; P. falciparum, 72 h, screen at 2 μg/mL, replicate 2): 70.42% | Pf_120h_%Growth_Rep1 ([2]; P. falciparum, 120 h, screen at 2 μg/mL, replicate 1): 119.92% | Pf_120h_%Growth_Rep2 ([2]; P. falciparum, 120 h, screen at 2 μg/mL, replicate 2): 51.57% | Tg_72h_%Growth_Rep1 ([3]; T. gondii, screen at 2 μg/mL, replicate 1): 89.38% | Tg_72h_%Growth_Rep2 ([3]; T. gondii, screen at 2 μg/mL, replicate 2): 91.04%

C=C1c2c(Cl)ccc(O)c2C(=O)C2=C(O)[C@]3(O)C(=O)C(C(N)=O)=C(O)[C@@H](N(C)C)[C@@H]3[C@@H](O)[C@H]12 [BIA-M1464]
Pf_72h_%Growth_Rep1 ([1]; P. falciparum 3D7, 72 h, library screen at 2 μg/mL, % growth, replicate 1): 76.80% | Pf_72h_%Growth_Rep2 ([1]; P. falciparum 3D7, 72 h, library screen at 2 μg/mL, % growth, replicate 2): 116.17% | Pf_120h_%Growth_Rep1 ([2]; P. falciparum 3D7, 120 h, library screen at 2 μg/mL, % growth, replicate 1): 99.01% | Pf_120h_%Growth_Rep2 ([2]; P. falciparum 3D7, 120 h, library screen at 2 μg/mL, % growth, replicate 2): 114.33% | Tg_72h_%Growth_Rep1 ([3]; T. gondii RH, library screen at 2 μg/mL, % growth, replicate 1): 124.80% | Tg_72h_%Growth_Rep2 ([3]; T. gondii RH, library screen at 2 μg/mL, % growth, replicate 2): 96.61%

COc1c(O)cc2cc(C)oc(=O)c2c1O [Reticulol]
Pf_72h_%Growth_Rep1 [1, 6]: 1.99% | Pf_72h_%Growth_Rep2 [1, 7]: 0.81% | Pf_120h_%Growth_Rep1 [2, 8]: -0.78% | Pf_120h_%Growth_Rep2 [2, 9]: 4.83% | Tg_72h_%Growth_Rep1 [3, 10]: 97.11% | Tg_72h_%Growth_Rep2 [3, 11]: 97.69%

C/C=C/c1cc2c(c(=O)o1)[C@H](O)[C@@H](O)[C@H](C)O2 [Radicinol]
Pf_72h_%Growth_Rep1 [1, 6]: 83.85% | Pf_72h_%Growth_Rep2 [1, 7]: 102.30% | Pf_120h_%Growth_Rep1 [2, 8]: 82.58% | Pf_120h_%Growth_Rep2 [2, 9]: 123.93% | Tg_72h_%Growth_Rep1 [3, 10]: 118.35% | Tg_72h_%Growth_Rep2 [3, 11]: 83.89%

CC1(C)C=Cc2c(ccc3ccc(=O)oc23)O1 [Seselin]
Pf_72h_%Growth_Rep1 [1, 6]: 72.86% | Pf_72h_%Growth_Rep2 [1, 7]: 126.42% | Pf_120h_%Growth_Rep1 [2, 8]: 59.04% | Pf_120h_%Growth_Rep2 [2, 9]: 133.69% | Tg_72h_%Growth_Rep1 [3, 10]: 115.94% | Tg_72h_%Growth_Rep2 [3, 11]: 77.58%

CCOC(=O)c1c(C)cc(O)cc1O [Ethyl orsellinate]
Pf_72h_%Growth_Rep1 ([1]; library screen at 2 μg/mL, 72 h, % growth, replicate 1): 90.89% | Pf_72h_%Growth_Rep2 ([1]; library screen at 2 μg/mL, 72 h, % growth, replicate 2): 117.50% | Pf_120h_%Growth_Rep1 ([2]; library screen at 2 μg/mL, 120 h, % growth, replicate 1): 96.78% | Pf_120h_%Growth_Rep2 ([2]; library screen at 2 μg/mL, 120 h, % growth, replicate 2): 106.42% | Tg_72h_%Growth_Rep1 ([3]; library screen at 2 μg/mL, % growth, replicate 1): 128.38% | Tg_72h_%Growth_Rep2 ([3]; library screen at 2 μg/mL, % growth, replicate 2): 103.54%

O=C(O)/C=C/c1ccccc1 [Cinnamic acid]
activity at 2 µg/mL [1, 12]: 90.3% | activity at 2 µg/mL [1, 13]: 87.8% | activity at 2 µg/mL [2, 14]: 147% | activity at 2 µg/mL [2, 15]: 102% | percent parasite growth at 2 µg/mL [3, 4]: 86.5% | percent parasite growth at 2 µg/mL [3, 5]: 96.7%

CN(C)[C@@H]1C(=O)C(C(=O)NCN2CCN(CCO)CC2)=C(O)[C@@]2(O)C(=O)C3=C(O)c4c(O)cccc4[C@@](C)(O)[C@H]3C[C@@H]12 [BIA-P1473]
Pf_72h_%Growth_Rep1 ([1]; P. falciparum 3D7, 72 h, parasite screen at 2 μg/mL, % growth, replicate 1): 83.77% | Pf_72h_%Growth_Rep2 ([1]; P. falciparum 3D7, 72 h, parasite screen at 2 μg/mL, % growth, replicate 2): 98.47% | Pf_120h_%Growth_Rep1 ([2]; P. falciparum 3D7, 120 h, parasite screen at 2 μg/mL, % growth, replicate 1): 88.47% | Pf_120h_%Growth_Rep2 ([2]; P. falciparum 3D7, 120 h, parasite screen at 2 μg/mL, % growth, replicate 2): 132.29% | Tg_72h_%Growth_Rep1 ([3]; T. gondii, parasite screen at 2 μg/mL, % growth, replicate 1): 118.64% | Tg_72h_%Growth_Rep2 ([3]; T. gondii, parasite screen at 2 μg/mL, % growth, replicate 2): 93.61%

C[C@H]1[C@H](C)CC[C@]2(C(=O)O)CC[C@]3(C)C(=CC[C@@H]4[C@@]5(C)CC[C@H](O)C(C)(C)[C@@H]5CC[C@]43C)[C@H]12 [Ursolic acid]
activity at 2 µg/mL [1, 12]: 77.7% | activity at 2 µg/mL [1, 13]: 84% | activity at 2 µg/mL [2, 14]: 155% | activity at 2 µg/mL [2, 15]: 79.7% | percent parasite growth at 2 µg/mL ([3]; read-out: Tg_72h_%Growth_Rep1): 96% | percent parasite growth at 2 µg/mL ([3]; read-out: Tg_72h_%Growth_Rep2): 92.8%
